According to patent publication US4742061A, “Benzoc[c]-1,5-naphthyridines and related compounds as memory enhancing agents” (priority 1986, dated 1988):

Test system: mice
Assay: Dark Avoidance Assay (block of scopolamine-induced memory impairment in mice, 24 hours)
Format: in vivo
Protocol: In this assay mice are tested for their ability to remember an unpleasant stimulus for a period of 24 hours. A mouse is placed in a chamber than contains a dark compartment; a strong incandescent light drives it to the dark compartment, where an electric shock is administered through metal plates on the floor. The animal is removed from the testing apparatus and tested again, 24 hours later, for the ability to remember the electric shock.
If scopolamine, an anticholinergic agent that is known to cause memory impairment, is administered before an animal's initial exposure to the test chamber, the animal re-enters the dark compartment shortly after being placed in the test chamber 24 hours later. This effect of scopolamine is blocked by an active test compound, resulting in greater interval before re-entry into the dark compartment.
The results for an active compound are expressed as the percent of a group of animals in which the effect of scopolamine is blocked, as manifested by an increased interval between being placed in the test chamber and re-entering the dark compartment.

Nc1c2c(nc3ccccc13)CCCC2 [Tacrine, 9-amino-1,2,3,4-tetrahydro-acridine]
% of Animals Greater than Scopolamine (dose 0.63 mg/kg of body weight): 13%

CC[C@@H]1C(=O)OC[C@@H]1Cc1cncn1C [Pilocarpine]
% of Animals Greater than Scopolamine (dose 5.0 mg/kg of body weight): 13%

c1ccc2c3c(ncc2c1)CCCN3 [1,2,3,4-Tetrahydrobenzo[c]-1,5-naphthyridine]
% of Animals Greater than Scopolamine (dose 1.25 mg/kg of body weight): 27% | % of Animals Greater than Scopolamine (dose 2.5 mg/kg of body weight): 25%
